# Experimental data taken from PubChem BioAssay AID248 (DTP/NCI, 2004).
# Several values for one entry are separate records, joined by “and”; a condition that tells them apart may be missing. Identical values can stand only once. Inconclusive results and toxic doses are left out.
# Tested on: L1210 leukemia ip in BDF1 mice, survival T/C
# Assay: NCI In Vivo Anticancer Drug Screen. Data for tumor model L1210 Leukemia (intraperitoneal) in B6D2F1 (BDF1) mice
# Conditions: higher = longer survival
# How it was run: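 Tumor cells were implanted, animals were treated, and survival was followed. The result divides the treated measurement by the vehicle-control measurement.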
# [1] = endpoint: mean survival time, dose: 100.0 mg/kg/injection, schedule: Q01DX009 (ip), vehicle: saline with Tween-80
# [2] = endpoint: mean survival time, dose: 200.0 mg/kg/injection, schedule: Q01DX009 (ip), vehicle: saline with Tween-80
# [3] = endpoint: mean survival time, dose: 400.0 mg/kg/injection, schedule: Q01DX009 (ip), vehicle: saline with Tween-80
# [4] = endpoint: mean survival time, dose: 100.0 mg/kg/injection, schedule: Q04DX003 (ip), vehicle: saline with Tween-80
# [5] = endpoint: mean survival time, dose: 200.0 mg/kg/injection, schedule: Q04DX003 (ip), vehicle: saline with Tween-80
# [6] = endpoint: mean survival time, dose: 400.0 mg/kg/injection, schedule: Q04DX003 (ip), vehicle: saline with Tween-80
# [7] = endpoint: mean survival time, dose: 100.0 mg/kg/injection, schedule: Q04DX003 (ip), vehicle: saline
# [8] = endpoint: mean survival time, dose: 100.0 mg/kg/injection, schedule: Q01DX009 (ip), vehicle: Klucel (hydroxypropylcellulose) (HPC)
# [9] = endpoint: mean survival time, dose: 100.0 mg/kg/injection, schedule: Q04DX003 (ip), vehicle: Klucel (hydroxypropylcellulose) (HPC)
# [10] = endpoint: mean survival time, dose: 200.0 mg/kg/injection, schedule: Q01DX009 (ip), vehicle: Klucel (hydroxypropylcellulose) (HPC)
# [11] = endpoint: mean survival time, dose: 200.0 mg/kg/injection, schedule: Q04DX003 (ip), vehicle: Klucel (hydroxypropylcellulose) (HPC)
smiles,measurement,setting,value
CN(CCO)/N=N/c1[nH]ncc1C(N)=O,T/C,"endpoint: mean survival time, dose: 54.0 mg/kg/injection, schedule: Q01DX009 (ip), vehicle: other",124 % of control
same,T/C,"endpoint: mean survival time, dose: 176.0 mg/kg/injection, schedule: Q01DX009 (ip), vehicle: other",159 % of control
same,T/C,"endpoint: mean survival time, dose: 345.0 mg/kg/injection, schedule: Q01DX009 (ip), vehicle: saline with Tween-80",163 % of control
same,T/C,"endpoint: mean survival time, dose: 400.0 mg/kg/injection, schedule: Q01DX009 (ip), vehicle: other",159 % of control
same,T/C,"endpoint: mean survival time, dose: 472.25 mg/kg/injection, schedule: Q01DX001 (ip), vehicle: saline with Tween-80",109 % of control
same,T/C,"endpoint: mean survival time, dose: 600.0 mg/kg/injection, schedule: Q01DX009 (ip), vehicle: other",189 % of control
same,T/C,"endpoint: mean survival time, dose: 690.0 mg/kg/injection, schedule: Q01DX009 (ip), vehicle: saline with Tween-80",192 % of control
same,T/C,"endpoint: mean survival time, dose: 900.0 mg/kg/injection, schedule: Q01DX009 (ip), vehicle: other",196 % of control
same,T/C,"endpoint: mean survival time, dose: 944.5 mg/kg/injection, schedule: Q01DX001 (ip), vehicle: saline with Tween-80",119 % of control
same,T/C,"endpoint: median survival time, dose: 63.0 mg/kg/injection, schedule: Q01DX009 (ip), vehicle: saline",119 % of control
same,T/C,"endpoint: median survival time, dose: 250.0 mg/kg/injection, schedule: Q01DX009 (ip), vehicle: saline",156 % of control
same,T/C,"endpoint: median survival time, dose: 500.0 mg/kg/injection, schedule: Q01DX009 (ip), vehicle: saline",173 % of control
same,T/C,"endpoint: median survival time, dose: 1000.0 mg/kg/injection, schedule: Q01DX009 (ip), vehicle: saline",201 % of control
CC1=CSCC(=O)N1,T/C,[1],97 % of control
same,T/C,[2],101 % of control
same,T/C,[3],105 % of control
CC(C)NC(=O)/C=C/C(=O)O,T/C,"endpoint: mean survival time, dose: 100.0 mg/kg/injection, schedule: Q01DX009 (ip), vehicle: saline",92 % of control
same,T/C,"endpoint: mean survival time, dose: 200.0 mg/kg/injection, schedule: Q01DX009 (ip), vehicle: saline",95 % of control
same,T/C,"endpoint: mean survival time, dose: 400.0 mg/kg/injection, schedule: Q01DX009 (ip), vehicle: saline",92 % of control
Cc1ccc2ccc3c4ccccc4ccc3[n+]2c1,T/C,"endpoint: mean survival time, dose: 10.0 mg/kg/injection, schedule: Q01DX001 (ip), vehicle: saline",102 % of control
same,T/C,"endpoint: mean survival time, dose: 20.0 mg/kg/injection, schedule: Q01DX001 (ip), vehicle: saline",98 % of control
O=C(O)c1ccccc1C(=O)OC1CCCC2CCCC21 (centres undefined),T/C,"endpoint: mean survival time, dose: 100.0 mg/kg/injection, schedule: Q01DX001 (ip), vehicle: carboxymethylcellulose (CMC)",95 % of control and 96 % of control
same,T/C,"endpoint: mean survival time, dose: 200.0 mg/kg/injection, schedule: Q01DX001 (ip), vehicle: carboxymethylcellulose (CMC)",101 % of control and 98 % of control
same,T/C,"endpoint: mean survival time, dose: 400.0 mg/kg/injection, schedule: Q01DX001 (ip), vehicle: carboxymethylcellulose (CMC)",90 % of control and 98 % of control
C[n+]1c(-c2ccc(Cl)cc2Cl)c2cc(N)ccc2c2ccccc21,T/C,"endpoint: mean survival time, dose: 3.12 mg/kg/injection, schedule: Q01DX009 (ip), vehicle: water",100 % of control
same,T/C,"endpoint: mean survival time, dose: 6.25 mg/kg/injection, schedule: Q01DX009 (ip), vehicle: water",91 % of control
same,T/C,"endpoint: mean survival time, dose: 12.5 mg/kg/injection, schedule: Q01DX009 (ip), vehicle: water",102 % of control and 105 % of control
same,T/C,"endpoint: mean survival time, dose: 12.5 mg/kg/injection, schedule: Q04DX003 (ip), vehicle: water",100 % of control
same,T/C,"endpoint: mean survival time, dose: 25.0 mg/kg/injection, schedule: Q01DX009 (ip), vehicle: water",120 % of control and 86 % of control
same,T/C,"endpoint: mean survival time, dose: 25.0 mg/kg/injection, schedule: Q04DX003 (ip), vehicle: water",90 % of control
CCC(N)c1ccc2c3c(cccc13)CC2 (centres undefined),T/C,[1],88 % of control
same,T/C,[4],93 % of control
same,T/C,[2],90 % of control
same,T/C,[5],90 % of control
same,T/C,[3],93 % of control
same,T/C,[6],90 % of control
CC1=C(Cl)CS(=O)(=O)C1,T/C,"endpoint: mean survival time, dose: 100.0 mg/kg/injection, schedule: Q01DX001 (ip), vehicle: saline with Tween-80",104 % of control
same,T/C,"endpoint: mean survival time, dose: 200.0 mg/kg/injection, schedule: Q01DX001 (ip), vehicle: saline with Tween-80",100 % of control
CC(=O)OCCC/C(=C\c1ccccc1)[N+](=O)[O-],T/C,"endpoint: mean survival time, dose: 100.0 mg/kg/injection, schedule: Q01DX001 (ip), vehicle: saline",107 % of control
CCN(CC)C(=O)N(CC)C(=O)CN(C)C,T/C,[7],102 % of control
same,T/C,"endpoint: mean survival time, dose: 200.0 mg/kg/injection, schedule: Q04DX003 (ip), vehicle: saline",102 % of control
same,T/C,"endpoint: mean survival time, dose: 400.0 mg/kg/injection, schedule: Q04DX003 (ip), vehicle: saline",96 % of control
CNC(=O)Oc1coc(CCl)cc1=O,T/C,"endpoint: mean survival time, dose: 37.5 mg/kg/injection, schedule: Q01DX001 (ip), vehicle: other",106 % of control
same,T/C,"endpoint: mean survival time, dose: 75.0 mg/kg/injection, schedule: Q01DX001 (ip), vehicle: other",101 % of control
same,T/C,"endpoint: mean survival time, dose: 150.0 mg/kg/injection, schedule: Q01DX001 (ip), vehicle: other",104 % of control
CCOC(=O)CSCCC1CC(=O)N1 (centres undefined),T/C,"endpoint: mean survival time, dose: 100.0 mg/kg/injection, schedule: Q04DX003 (ip), vehicle: other",103 % of control
same,T/C,"endpoint: mean survival time, dose: 200.0 mg/kg/injection, schedule: Q04DX003 (ip), vehicle: other",104 % of control
same,T/C,"endpoint: mean survival time, dose: 400.0 mg/kg/injection, schedule: Q04DX003 (ip), vehicle: other",107 % of control
O=P(NNc1ccccc1)(NNc1ccccc1)c1ccccc1,T/C,"endpoint: mean survival time, dose: 100.0 mg/kg/injection, schedule: Q01DX009 (ip), vehicle: carboxymethylcellulose (CMC)",90 % of control
same,T/C,"endpoint: mean survival time, dose: 200.0 mg/kg/injection, schedule: Q01DX009 (ip), vehicle: carboxymethylcellulose (CMC)",88 % of control
same,T/C,"endpoint: mean survival time, dose: 400.0 mg/kg/injection, schedule: Q01DX009 (ip), vehicle: carboxymethylcellulose (CMC)",92 % of control
Cc1cc(Cl)ccc1NS(=O)(=O)c1ccc(Br)cc1,T/C,[1],97 % of control
same,T/C,[4],102 % of control
same,T/C,[2],98 % of control
same,T/C,[5],100 % of control
same,T/C,[3],93 % of control
same,T/C,[6],96 % of control
CN(CCO)C1CCCCCCC1,T/C,"endpoint: mean survival time, dose: 100.0 mg/kg/injection, schedule: Q01DX001 (ip), vehicle: acetone",100 % of control
CCCCCCCCCCCCC1CC(=O)OC1=O (centres undefined),T/C,[8],97 % of control
same,T/C,[9],93 % of control
same,T/C,[10],95 % of control
same,T/C,[11],91 % of control
C/C=C/C(=O)OC(=O)/C=C/C,T/C,"endpoint: mean survival time, dose: 25.0 mg/kg/injection, schedule: Q04DX003 (ip), vehicle: saline with Tween-80",94 % of control
same,T/C,"endpoint: mean survival time, dose: 50.0 mg/kg/injection, schedule: Q04DX003 (ip), vehicle: saline with Tween-80",98 % of control
same,T/C,[4],113 % of control
same,T/C,[7],114 % of control
O=C(NC(=O)c1ccc(Cl)cc1)Nc1ccc(Cl)cc1C(F)(F)F,T/C,"endpoint: mean survival time, dose: 50.0 mg/kg/injection, schedule: Q01DX009 (ip), vehicle: saline with Tween-80",98 % of control
same,T/C,[1],103 % of control
same,T/C,[2],98 % of control
Cc1ccc(C)c(NC(=O)Nc2c(C)n(C)n(-c3ccccc3)c2=O)c1,T/C,[8],96 % of control
same,T/C,[9],97 % of control
same,T/C,[10],95 % of control
same,T/C,[11],89 % of control
same,T/C,"endpoint: mean survival time, dose: 400.0 mg/kg/injection, schedule: Q04DX003 (ip), vehicle: Klucel (hydroxypropylcellulose) (HPC)",93 % of control
CSc1ccc(NC(=O)Nc2cc(Cl)c(Cl)cc2C)cc1,T/C,"endpoint: mean survival time, dose: 50.0 mg/kg/injection, schedule: Q01DX009 (ip), vehicle: Klucel (hydroxypropylcellulose) (HPC)",87 % of control
same,T/C,[8],87 % of control
same,T/C,[10],86 % of control and 92 % of control
same,T/C,"endpoint: mean survival time, dose: 400.0 mg/kg/injection, schedule: Q01DX009 (ip), vehicle: Klucel (hydroxypropylcellulose) (HPC)",86 % of control
COC(=O)c1c(C(N)=O)n[nH]c1C1OC(COCc2ccccc2)C(OCc2ccccc2)C1OCc1ccccc1 (centres undefined),T/C,"endpoint: mean survival time, dose: 100.0 mg/kg/injection, schedule: Q01DX005 (ip), vehicle: saline with Tween-80",102 % of control
same,T/C,"endpoint: mean survival time, dose: 200.0 mg/kg/injection, schedule: Q01DX005 (ip), vehicle: saline with Tween-80",100 % of control
O=C(Nc1ccc(Cl)c(Cl)c1)Nc1ccc(Oc2ccc(Cl)cc2Cl)cc1S(=O)(=O)O,T/C,"endpoint: mean survival time, dose: 100.0 mg/kg/injection, schedule: Q04DX003 (ip), vehicle: alcohol",100 % of control
same,T/C,"endpoint: mean survival time, dose: 200.0 mg/kg/injection, schedule: Q04DX003 (ip), vehicle: alcohol",103 % of control
Cc1nc(Cl)c(C#N)c(C(F)(F)F)c1N,T/C,"endpoint: mean survival time, dose: 100.0 mg/kg/injection, schedule: Q01DX Z (ip), vehicle: carboxymethylcellulose (CMC)",95 % of control
COc1ccccc1-n1c(O)c(N=Nc2ccc(Cl)cc2)c(=O)n(-c2ccc(C)cc2)c1=S,T/C,"endpoint: mean survival time, dose: 100.0 mg/kg/injection, schedule: Q01DX001 (ip), vehicle: Klucel (hydroxypropylcellulose) (HPC)",98 % of control
same,T/C,"endpoint: mean survival time, dose: 200.0 mg/kg/injection, schedule: Q01DX001 (ip), vehicle: Klucel (hydroxypropylcellulose) (HPC)",96 % of control
same,T/C,"endpoint: mean survival time, dose: 400.0 mg/kg/injection, schedule: Q01DX001 (ip), vehicle: Klucel (hydroxypropylcellulose) (HPC)",105 % of control
COc1ccc(C(O)c2ccccn2)cc1 (centres undefined),T/C,[4],90 % of control
same,T/C,[5],98 % of control
same,T/C,[6],95 % of control
